# Experimental data from patent publication US20240209028A1, “CNP COMPOUNDS” (priority 2022, published 2024).
# Starred links: 1 amine or outer side, 2 acyl side, 3 side chain; linkers in the order of their positions; H or OH if unused. Positions of bridges follow the written chain, without caps; N, C: chain ends. Residues, ends and D or L forms follow the SMILES beside them. *: point of attachment. C18 diacid = O=C(O)CCCCCCCCCCCCCCCCC(=O)*; γGlu = O=C(O)[C@H](CCC(=O)[*:2])N[*:1]; AEEA = NCCOCCOCC(=O)O
# Biological target: T1, human natriuretic peptide receptor 2 (hNPR2) (Homo sapiens, UniProt P20594)
# T1 construct: expressed in transfected cells; host or cells: HEK293 (ATCC CRL-1573), clone 35, co-transfected with pGloSensor-42F
# T1 sequence (P20594 23-1047): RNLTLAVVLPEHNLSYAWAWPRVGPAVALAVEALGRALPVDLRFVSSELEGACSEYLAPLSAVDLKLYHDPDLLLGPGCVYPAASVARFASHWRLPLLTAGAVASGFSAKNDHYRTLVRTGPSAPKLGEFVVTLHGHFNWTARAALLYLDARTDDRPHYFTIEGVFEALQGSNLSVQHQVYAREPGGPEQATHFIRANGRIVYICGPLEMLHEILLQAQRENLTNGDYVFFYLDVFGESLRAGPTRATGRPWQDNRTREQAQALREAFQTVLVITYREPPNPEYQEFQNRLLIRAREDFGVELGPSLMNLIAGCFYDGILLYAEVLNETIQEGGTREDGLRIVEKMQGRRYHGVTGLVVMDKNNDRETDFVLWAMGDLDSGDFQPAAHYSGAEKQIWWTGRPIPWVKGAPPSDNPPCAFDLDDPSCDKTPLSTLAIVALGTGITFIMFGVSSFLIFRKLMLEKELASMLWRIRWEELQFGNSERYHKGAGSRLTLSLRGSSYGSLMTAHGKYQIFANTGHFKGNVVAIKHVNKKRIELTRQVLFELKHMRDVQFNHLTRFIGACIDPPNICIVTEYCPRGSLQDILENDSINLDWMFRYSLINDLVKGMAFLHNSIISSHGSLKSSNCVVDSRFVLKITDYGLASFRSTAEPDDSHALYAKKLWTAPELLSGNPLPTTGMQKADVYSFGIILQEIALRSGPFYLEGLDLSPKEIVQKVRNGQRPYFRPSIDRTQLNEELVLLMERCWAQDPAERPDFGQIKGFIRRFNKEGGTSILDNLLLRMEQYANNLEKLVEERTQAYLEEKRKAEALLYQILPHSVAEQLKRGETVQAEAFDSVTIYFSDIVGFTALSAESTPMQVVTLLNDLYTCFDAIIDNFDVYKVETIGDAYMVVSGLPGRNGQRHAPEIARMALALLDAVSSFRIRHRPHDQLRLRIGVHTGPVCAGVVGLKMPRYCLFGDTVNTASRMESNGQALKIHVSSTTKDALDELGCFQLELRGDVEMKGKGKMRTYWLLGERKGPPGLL
# Test: In vitro hNPR2 activity assay (cGMP GloSensor reporter, HEK293)
# Assay type: cell-based
# Settings: for hNPR2 0% HSA. [EC50% rel CNP]: potency relative to CNP22 (0065); for EC50: 0% HSA, HEK293-hNPR2/GloSensor cells
# Procedure: To evaluate the in vitro activity of CNP22 (0065; Chem. 1) and CNP compounds of the invention, they were tested for their ability to induce production of cyclic guanosine monophosphate (cGMP) in reporter cells expressing the human natriuretic peptide receptor 2 (hNPR2).
# Cell culture: To produce the reporter cell line, HEK293 (ATCC® CRL-1573™) cells were stably transfected with the pGloSensor-42F reporter plasmid (GloSensor cGMP reporter—luciferase, Promega) and an expression plasmid encoding the hNPR2 receptor. A single cell clone was isolated for the reporter cell line. When reporter cells are exposed to an hNPR2 activating compound, hNPR2 cause production of cGMP. […] Active GloSensor luciferase is able to convert luciferin to oxyluciferin, a process that produces bioluminescence. Upon cell lysis and supply of luciferase substrate, luciferase activity can be quantified by detection of luminescence. Therefore, addition of an hNPR2 activating compound and subsequent addition of detection reagent to reporter cells causes generation of luminescence in a dose dependent manner. […] This measure, also referred to as in vitro potency, is reported for all compounds tested. In all the in vitro activity experiments, CNP22 was used as a positive in-plate control for hNPR2 activation. To reduce inter-assay variation, we also report the potency of each compound relative to the potency of the CNP22 control on each plate.
# Procedure: HEK293-hNPR2/GloSensor clone 35 cells were continuously cultured in selection medium (DMEM containing 10% FCS, 1% P/S, 200 μg/mL G418 and 100 μg/mL hygromycin). To perform the assay, cells were detached with TrypLE Express (Gibco #12604013), put through a 70 μm cell strainer, counted and seeded in 30 μL/well assay medium (DMEM without phenol red and with 1% P/S) at 10,000 cells/well in white 384-well plates (Perkin Elmer #6007680) overnight. The following day, test compounds were serial diluted in dilution medium (DMEM without phenol red containing 1% OVA (Sigma #A5505 lot 04M7001V), 0.01% Tween20 (Roche #33766700) and 1% P/S) and 10 μL/well of diluted test compounds were subsequently added to the cells. For each compound, ten different concentrations in the range 0.25 μM-10 μM were tested. After 30 min of incubation at 37° C. and 5% CO2, 40 μL/well Bright-Glo detection reagent (Promega #E2650) was added. […] To determine the in vitro potency or EC50 of each test compound, a four parameter logistic regression was done on the raw data for each test compound using the Python package SciPy optimize. The average EC50 values are listed as “hNPR2 0% HSA. [EC50 (nM)]” in Table 2. A relative potency was calculated by the following expression: EC50 (CNP22 in-plate control)/EC50 (test compound)*100, shown as “hNPR2 0% HSA. [EC50% rel CNP]” in Table 2. A minimum of two replicates was measured for each test compound.
Structure (SMILES),hNPR2 0% HSA. [EC50% rel CNP] [%],EC50 [nM]
CC[C@H](C)[C@@H]1NC(=O)[C@H](CCCNC(=N)N)NC(=O)[C@H](CC(=O)O)NC(=O)[C@H](CC(C)C)NC(=O)[C@H](CCCCN)NC(=O)[C@H](CC(C)C)NC(=O)CNC(=O)[C@H](Cc2ccccc2)NC(=O)[C@@H](NC(=O)CNC(=O)[C@H](CCCCN)NC(=O)[C@H](CO)NC(=O)[C@H](CC(C)C)NC(=O)CN)CSSC[C@@H](C(=O)O)NC(=O)CNC(=O)[C@H](CC(C)C)NC(=O)CNC(=O)[C@H](CO)NC(=O)[C@H](CCSC)NC(=O)[C@H](CO)NC(=O)CNC1=O [compound 0065],100.0,
CC[C@H](C)[C@@H]1NC(=O)[C@H](CCCNC(=N)N)NC(=O)[C@H](CC(=O)O)NC(=O)[C@H](CC(C)C)NC(=O)[C@H](CCCCN)NC(=O)[C@H](CC(C)C)NC(=O)CNC(=O)[C@H](Cc2ccccc2)NC(=O)[C@@H](NC(=O)CNC(=O)[C@H](CCCCN)NC(=O)[C@H](CO)NC(=O)[C@H](CC(C)C)NC(=O)CNC(=O)COCCOCCNC(=O)COCCOCCNC(=O)CC[C@H](NC(=O)CCCCCCCCCCCCCCCCC(=O)O)C(=O)O)CSSC[C@@H](C(=O)O)NC(=O)CNC(=O)[C@H](CC(C)C)NC(=O)CNC(=O)[C@H](CO)NC(=O)[C@H](CCSC)NC(=O)[C@H](CO)NC(=O)CNC1=O [compound 0089],3.1,12.3
CC[C@H](C)[C@@H]1NC(=O)[C@H](CCCNC(=N)N)NC(=O)[C@H](CC(=O)O)NC(=O)[C@H](CC(C)C)NC(=O)[C@H](CCCCN)NC(=O)[C@H](CC(C)C)NC(=O)CNC(=O)[C@H](Cc2ccccc2)NC(=O)[C@@H](NC(=O)CNC(=O)[C@H](CCCCN)NC(=O)[C@H](CO)NC(=O)[C@H](CC(C)C)NC(=O)CNC(=O)COCCOCCNC(=O)COCCOCCNC(=O)COCCOCCNC(=O)COCCOCCNC(=O)COCCOCCNC(=O)COCCOCCNC(=O)COCCOCCNC(=O)COCCOCCNC(=O)CC[C@H](NC(=O)CCCCCCCCCCCCCCCCC(=O)O)C(=O)O)CSSC[C@@H](C(=O)O)NC(=O)CNC(=O)[C@H](CC(C)C)NC(=O)CNC(=O)[C@H](CO)NC(=O)[C@H](CCSC)NC(=O)[C@H](CO)NC(=O)CNC1=O [compound 0231],0.8,14.5
CC[C@H](C)[C@@H]1NC(=O)[C@H](CCCNC(=N)N)NC(=O)[C@H](CC(=O)O)NC(=O)[C@H](CC(C)C)NC(=O)[C@H](CCCCN)NC(=O)[C@H](CC(C)C)NC(=O)CNC(=O)[C@H](Cc2ccccc2)NC(=O)[C@@H](NC(=O)CNC(=O)[C@H](CCCCN)NC(=O)[C@H](CO)NC(=O)[C@H](CC(C)C)NC(=O)CNC(=O)[C@H](CCCCN)NC(=O)[C@H](CCCCN)NC(=O)[C@H](CCC(N)=O)NC(=O)[C@H](C)NC(=O)CNC(=O)[C@H](CCC(=O)O)NC(=O)[C@H](Cc2ccc(O)cc2)NC(=O)COCCOCCNC(=O)COCCOCCNC(=O)CC[C@H](NC(=O)CCCCCCCCCCCCCCCCC(=O)O)C(=O)O)CSSC[C@@H](C(=O)O)NC(=O)CNC(=O)[C@H](CC(C)C)NC(=O)CNC(=O)[C@H](CO)NC(=O)[C@H](CC(C)C)NC(=O)[C@H](CO)NC(=O)CNC1=O [compound 1221],35.9,1.17
CC[C@H](C)[C@@H]1NC(=O)[C@H](CCCNC(=N)N)NC(=O)[C@H](CC(=O)O)NC(=O)[C@H](CC(C)C)NC(=O)[C@H](CCCCN)NC(=O)[C@H](CC(C)C)NC(=O)CNC(=O)[C@H](Cc2ccccc2)NC(=O)[C@@H](NC(=O)CNC(=O)[C@H](CCCCN)NC(=O)[C@H](CO)NC(=O)[C@H](CC(C)C)NC(=O)CNC(=O)[C@H](CCCCN)NC(=O)[C@H](CCCCN)NC(=O)[C@H](CCC(N)=O)NC(=O)[C@H](C)NC(=O)CNC(=O)[C@H](CCC(=O)O)NC(=O)[C@H](CCC(=O)O)NC(=O)COCCOCCNC(=O)COCCOCCNC(=O)CC[C@H](NC(=O)CCCCCCCCCCCCCCCCC(=O)O)C(=O)O)CSSC[C@@H](C(=O)O)NC(=O)CNC(=O)[C@H](CC(C)C)NC(=O)CNC(=O)[C@H](CO)NC(=O)[C@H](CC(C)C)NC(=O)[C@H](CO)NC(=O)CNC1=O [compound 1222],14.3,2.94
CC[C@H](C)[C@@H]1NC(=O)[C@H](CCCNC(=N)N)NC(=O)[C@H](CC(=O)O)NC(=O)[C@H](CC(C)C)NC(=O)[C@H](CCCCN)NC(=O)[C@H](CC(C)C)NC(=O)CNC(=O)[C@H](Cc2ccccc2)NC(=O)[C@@H](NC(=O)CNC(=O)[C@H](CCCCN)NC(=O)[C@H](CO)NC(=O)[C@H](CC(C)C)NC(=O)CNC(=O)[C@H](CCCCN)NC(=O)[C@H](CCC(=O)O)NC(=O)[C@H](CCC(N)=O)NC(=O)[C@H](C)NC(=O)CNC(=O)[C@H](CCC(=O)O)NC(=O)[C@H](Cc2ccc(O)cc2)NC(=O)COCCOCCNC(=O)COCCOCCNC(=O)CC[C@H](NC(=O)CCCCCCCCCCCCCCCCC(=O)O)C(=O)O)CSSC[C@@H](C(=O)O)NC(=O)CNC(=O)[C@H](CC(C)C)NC(=O)CNC(=O)[C@H](CO)NC(=O)[C@H](CC(C)C)NC(=O)[C@H](CO)NC(=O)CNC1=O [compound 1223] ({C18 diacid-γGlu-AEEA-AEEA}-YEGAQEKGLSKGCFGLKLDRIGSLSGLGC-OH; disulfide 13-29),6.77,1.05
CC[C@H](C)[C@@H]1NC(=O)[C@H](CCCNC(=N)N)NC(=O)[C@H](CC(=O)O)NC(=O)[C@H](CC(C)C)NC(=O)[C@H](CCCCN)NC(=O)[C@H](CC(C)C)NC(=O)CNC(=O)[C@H](Cc2ccccc2)NC(=O)[C@@H](NC(=O)CNC(=O)[C@H](CO)NC(=O)[C@H](CO)NC(=O)[C@H](CC(C)C)NC(=O)CNC(=O)[C@H](CCCCN)NC(=O)[C@H](CCCCN)NC(=O)[C@H](CCC(N)=O)NC(=O)[C@H](C)NC(=O)CNC(=O)[C@H](CCC(=O)O)NC(=O)[C@H](Cc2ccc(O)cc2)NC(=O)COCCOCCNC(=O)COCCOCCNC(=O)CC[C@H](NC(=O)CCCCCCCCCCCCCCCCC(=O)O)C(=O)O)CSSC[C@@H](C(=O)O)NC(=O)CNC(=O)[C@H](CC(C)C)NC(=O)CNC(=O)[C@H](CO)NC(=O)[C@H](CC(C)C)NC(=O)[C@H](CO)NC(=O)CNC1=O [compound 1224] ({C18 diacid-γGlu-AEEA-AEEA}-YEGAQKKGLSSGCFGLKLDRIGSLSGLGC-OH; disulfide 13-29),16.9,0.86
